Experimental data reported in patent US11696917B2, “Agent enhancing antitumor effect using pyrazolo[3,4-d]pyrimidine compound” (TAIHO PHARMACEUTICAL CO., LTD., priority 2017, dated 2023).
pIC50: −log10 of the molar value. Where two headings read alike, the source gives them in different places.

Key:
[1] = tested on: EGFR-overexpressing highly activated human epithelioid cancer cell line A431 cells; assay: Cytostatic activity against EGFR-expressing cell line (A431), CellTiter-Glo; type: cell-based; conditions: 3-day culture, read-out: A431 cell growth inhibitory activity IC50 value
Excerpt: (§1) HER2-overexpressing human stomach cancer cell line NCI-N87 cells were suspended in RPMI1640 medium (manufactured by Life Technologies Corp.) containing 10% fetal bovine serum. Meanwhile, EGFR-overexpressing highly activated human epithelioid cancer cell line A431 cells were suspended in DMEM, high glucose medium (manufactured by Life Technologies Corp.) containing 10% fetal bovine serum. Subsequently, each cell suspension was inoculated to each well of a 384-well flat-bottom microplate and cultured at 37° C. for 1 day in an incubator containing 5% carbon dioxide. The synthesis example compound was dissolved in DMSO, and the test compound was diluted into a concentration of 500 times the final concentration using DMSO. The solution of the test compound in DMSO was diluted with the medium used in the suspension of each cell line, and this solution was added at a final concentration of DMSO of 0.2% to each well of the cell culture plate, followed by further culture at 37° C. for 3 days in an incubator containing 5% carbon dioxide.
(§2) Rate of growth inhibition (%)=(C−T)/(C)×100 T: Luminescence intensity of a well supplemented with the test compound C: Luminescence intensity of a well not supplemented with the test compound

[2] = tested on: HER2-overexpressing human stomach cancer cell line NCI-N87 cells; assay: Cytostatic activity against HER2-expressing cell line (NCI-N87), CellTiter-Glo; type: cell-based; conditions: 3-day culture, read-out: NCI-N87 cell growth inhibitory activity IC50 value
Excerpt: as §1

[3] = tested on: HER2-overexpressing human breast cancer cell line SK-BR-3 cells; assay: Cytostatic activity against HER2-expressing cell line (SK-BR-3), CellTiter-Glo; type: cell-based; conditions: 3-day culture, read-out: SK-BR-3 cell growth inhibitory activity IC50 value
Experimental: as §2
as §1, with “breast” for “stomach”, “SK-BR-3” for “NCI-N87”, “McCoy's 5a” for “RPMI1640”, “The” for “Meanwhile, EGFR-overexpressing highly activated human epithelioid cancer cell line A431 cells were suspended in DMEM, high glucose medium (manufactured by Life Technologies Corp.) containing 10% fetal bovine serum. Subsequently, each”, “into” for “into a concentration of”, “times as high concentration as” for “times”

[4] = biological target: purified recombinant human HER2 protein (Homo sapiens (Human), UniProt P04626); assay: Measurement of inhibitory effect on HER2-phosphorylating activity (in vitro); type: biochemical; conditions: ATP 6 μM, 25° C., 40 minutes
Excerpt: The purified recombinant human HER2 protein used in the test was purchased from Carna Biosciences, Inc.
For the inhibitory activity measurement of each compound, the synthesis example compound was first serially diluted with dimethyl sulfoxide (DMSO).

purified recombinant human HER2 protein, sequence (P04626 23-1255): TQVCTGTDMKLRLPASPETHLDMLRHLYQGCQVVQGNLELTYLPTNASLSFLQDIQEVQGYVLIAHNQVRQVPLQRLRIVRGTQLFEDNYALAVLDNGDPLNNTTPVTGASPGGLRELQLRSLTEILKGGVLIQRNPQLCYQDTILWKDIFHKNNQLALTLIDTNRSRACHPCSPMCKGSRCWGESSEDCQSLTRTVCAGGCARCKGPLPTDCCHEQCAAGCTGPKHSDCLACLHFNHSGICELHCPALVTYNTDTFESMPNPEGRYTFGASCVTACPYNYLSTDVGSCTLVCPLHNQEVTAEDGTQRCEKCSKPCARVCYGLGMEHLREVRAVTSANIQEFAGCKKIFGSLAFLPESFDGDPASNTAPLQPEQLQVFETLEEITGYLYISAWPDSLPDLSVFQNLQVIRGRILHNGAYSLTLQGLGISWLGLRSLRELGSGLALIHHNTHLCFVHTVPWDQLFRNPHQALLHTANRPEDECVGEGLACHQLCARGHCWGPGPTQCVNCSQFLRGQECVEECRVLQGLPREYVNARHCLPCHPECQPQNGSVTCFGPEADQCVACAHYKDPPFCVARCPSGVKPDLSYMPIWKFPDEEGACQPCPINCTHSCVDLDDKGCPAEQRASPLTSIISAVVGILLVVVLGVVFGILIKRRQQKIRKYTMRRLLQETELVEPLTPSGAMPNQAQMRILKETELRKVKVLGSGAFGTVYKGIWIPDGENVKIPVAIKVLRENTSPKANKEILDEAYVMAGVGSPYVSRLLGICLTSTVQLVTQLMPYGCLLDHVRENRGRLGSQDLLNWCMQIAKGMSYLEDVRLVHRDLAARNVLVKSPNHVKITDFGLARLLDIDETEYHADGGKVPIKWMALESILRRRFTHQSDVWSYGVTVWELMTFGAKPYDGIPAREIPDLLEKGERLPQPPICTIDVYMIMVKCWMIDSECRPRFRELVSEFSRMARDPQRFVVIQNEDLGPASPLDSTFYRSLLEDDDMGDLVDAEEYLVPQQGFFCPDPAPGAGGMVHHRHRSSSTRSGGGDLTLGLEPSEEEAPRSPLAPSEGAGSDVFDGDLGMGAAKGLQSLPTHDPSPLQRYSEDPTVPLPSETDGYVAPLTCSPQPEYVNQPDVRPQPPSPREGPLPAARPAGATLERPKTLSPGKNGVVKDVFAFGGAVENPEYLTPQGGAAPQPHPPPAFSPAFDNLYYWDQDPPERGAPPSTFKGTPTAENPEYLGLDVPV

| Compound | pIC50 [1] | pIC50 [2] | pIC50 [3] | pIC50 [4] | pIC50 ([1]; Homo sapiens, A-431, 72 h) | pIC50 ([2]; Homo sapiens, NCI-N87, 72 h) | pIC50 ([3]; Homo sapiens, SK-BR-3, 72 h) |
| --- | --- | --- | --- | --- | --- | --- | --- |
| C=CC(=O)N1C[C@H](n2nc(C(=O)Nc3ccc(CC(=O)N(C)C)cc3Cl)c3c(N)ncnc32)C[C@@H]1C [compound 78] | 5.26 |  |  |  |  |  |  |
| C=CC(=O)N1CCC[C@@H](n2nc(C(=O)Nc3cc(Br)c(CC(=O)N(C)C)cc3C)c3c(N)ncnc32)C1 [compound 1] | 5.63 | 7.72 | 7.70 | 8.00 |  |  |  |
| C=CC(=O)N1CCC[C@@H](n2nc(C(=O)Nc3ccc(NC(=O)N(C)C)cc3C)c3c(N)ncnc32)C1 [compound 74, (R)-1-(1-acryloylpiperidin-3-yl)-4-amino-N-(4-(3,3-dimethylureido)-2-methylphenyl)-1H-pyrazolo[3,4-d]pyrimidine-3-carboxamide] |  |  |  |  | 5.09 | 7.74 |  |
| C=CC(=O)N1CC[C@@H](n2nc(C(=O)Nc3ccc(OC(=O)N(C)C)c4ccccc34)c3c(N)ncnc32)C1 [compound 58] | 6.17 |  |  |  |  |  |  |
| C=CC(=O)N1C[C@H](n2nc(C(=O)Nc3ccc(CC(=O)N(C)C)c(C)c3C)c3c(N)ncnc32)C[C@@H]1C [compound 79] | 5.16 |  |  | 7.77 |  |  |  |
| C=CC(=O)N1CCC[C@@H](n2nc(C(=O)Nc3ccc(OC(=O)N(C)C)c(F)c3F)c3c(N)ncnc32)C1 [compound 35] | 5.58 | 8.10 |  | 7.80 |  |  |  |
| C=CC(=O)N1CCC[C@@H](n2nc(C(=O)Nc3ccc(OC(=O)N(C)C)c(F)c3)c3c(N)ncnc32)C1 [compound 34] | 5.66 | 7.49 |  |  |  |  |  |
| C=CC(=O)N1CCC[C@@H](n2nc(C(=O)Nc3ccc(OC(=O)N(C)C)c(C)c3)c3c(N)ncnc32)C1 [compound 30] | 5.63 | 7.64 | 7.41 |  |  |  |  |
| C=CC(=O)N1CCC[C@@H](n2nc(C(=O)Nc3ccc(OC(=O)N(C)C)cc3OC)c3c(N)ncnc32)C1 [compound 36] |  |  | 7.92 |  |  |  |  |
| C=CC(=O)N1CCC[C@@H](n2nc(C(=O)Nc3cc(F)c(CC(=O)N(C)C)cc3C)c3c(N)ncnc32)C1 [compound 10] | 5.85 | 8.22 | 7.68 | 7.89 |  |  |  |
| C=CC(=O)N1CCC[C@@H](n2nc(C(=O)Nc3ccc(OC(=O)N(C)C)cc3Cl)c3c(N)ncnc32)C1 [compound 27] | 5.82 | 8.30 | 8.05 |  |  |  |  |
| C=CC(=O)N1CCC[C@@H](n2nc(C(=O)Nc3cc(Cl)c(CC(=O)N(C)C)cc3OC)c3c(N)ncnc32)C1 [compound 9] | 5.61 | 7.89 |  | 8.00 |  |  |  |
| C=CC(=O)N1CCC[C@@H](n2nc(C(=O)Nc3ccc(CC(=O)N(C)C)c(Cl)c3OC)c3c(N)ncnc32)C1 [compound 11] | 6.02 | 8.40 | 7.92 | 8.12 |  |  |  |
| C=CC(=O)N1CCC[C@@H](n2nc(C(=O)Nc3cc(F)c(CC(=O)N(C)C)cc3Cl)c3c(N)ncnc32)C1 [compound 18] | 5.98 | 7.92 |  | 8.36 |  |  |  |
| C=CC(=O)N1CCC[C@@H](n2nc(C(=O)Nc3ccc(OC(=O)N(C)C)c(C)c3C)c3c(N)ncnc32)C1 [compound 32] | 5.72 | 8.15 | 7.85 |  |  |  |  |
| C=CC(=O)N1CCC[C@@H](n2nc(C(=O)Nc3ccc(OC(=O)N(C)C)c4ccccc34)c3c(N)ncnc32)C1 [compound 33] | 6.58 |  |  |  |  |  |  |
| C=CC(=O)N1CCC[C@@H](n2nc(C(=O)Nc3ccc(CC(=O)N4CCCC4)cc3C)c3c(N)ncnc32)C1 [compound 71, (R)-1-(1-acryloylpiperidin-3-yl)-4-amino-N-(2-methyl-4-(2-oxo-2-(pyrrolidin-1-yl)ethyl)phenyl)-1H-pyrazolo[3,4-d]pyrimidine-3-carboxamide] |  |  |  |  | 5.67 | 7.59 |  |
| C=CC(=O)N1CCC[C@@H](n2nc(C(=O)Nc3ccc(CC(=O)N(C)C)c4ccccc34)c3c(N)ncnc32)C1 [compound 5] | 5.91 | 8.22 | 7.96 |  |  |  |  |
| C=CC(=O)N1CCC[C@@H](n2nc(C(=O)Nc3cc(C)c(OC(=O)N(C)C)cc3C)c3c(N)ncnc32)C1 [compound 38] | 5.98 | 8.10 | 7.92 |  |  |  |  |
| C=CC(=O)N1CC[C@@H](n2nc(C(=O)Nc3ccc(OC(=O)N(C)C)cc3C)c3c(N)ncnc32)C1 [compound 63] | 5.78 | 7.96 |  |  |  |  |  |
| C=CC(=O)N1CCC[C@@H](n2nc(C(=O)Nc3ccc(CC(=O)N(C)C)c(C)c3C)c3c(N)ncnc32)C1 [compound 13, (R)-1-(1-acryloylpiperidin-3-yl)-4-amino-N-(4-(2-(dimethylamino)-2-oxoethyl)-2,3-dimethylphenyl)-1H-pyrazolo[3,4-d]pyrimidine-3-carboxamide] |  |  |  |  | 5.92 | 8.30 | 8.05 |
| C=CC(=O)N1CCC[C@@H](n2nc(C(=O)Nc3ccc(CC(=O)N(C)C)c(Cl)c3)c3c(N)ncnc32)C1 [compound 8] | 6.02 | 8.10 |  | 8.04 |  |  |  |
| C=CC(=O)N1CCC[C@@H](n2nc(C(=O)Nc3ccc(CC(=O)N(C)C)c4c3OCO4)c3c(N)ncnc32)C1 [compound 53] |  |  | 7.74 | 7.85 |  |  |  |
| C=CC(=O)N1CC(F)C[C@@H](n2nc(C(=O)Nc3ccc(CC(=O)N(C)C)c(C)c3C)c3c(N)ncnc32)C1 (stereo partly drawn) [compound 77, 1-((3R)-1-acryloyl-5-fluoropiperidin-3-yl)-4-amino-N-(4-(2-(dimethylamino)-2-oxoethyl)-2,3-dimethylphenyl)-1H-pyrazolo[3,4-d]pyrimidine-3-carboxamide] |  |  |  |  | 5.61 |  | 7.92 |

Next, values leading:

| pIC50 [1] | pIC50 [2] | pIC50 [3] | pIC50 [4] | pIC50 ([1]; Homo sapiens, A-431, 72 h) | pIC50 ([2]; Homo sapiens, NCI-N87, 72 h) | pIC50 ([3]; Homo sapiens, SK-BR-3, 72 h) | Compound |
| --- | --- | --- | --- | --- | --- | --- | --- |
| 5.58 | 7.51 |  | 7.66 |  |  |  | C=CC(=O)N1CC[C@@H](n2nc(C(=O)Nc3ccc(CC(=O)N(C)C)c(F)c3C)c3c(N)ncnc32)C1 [compound 56] |
| 5.46 | 7.57 | 7.40 | 8.00 |  |  |  | C=CC(=O)N1CCC[C@@H](n2nc(C(=O)Nc3ccc(CC(=O)N(C)C)cc3OCF)c3c(N)ncnc32)C1 [compound 16] |
| 5.64 | 7.70 | 7.52 | 8.07 |  |  |  | C=CC(=O)N1CCC[C@@H](n2nc(C(=O)Nc3ccc(CC(=O)N(C)C)cc3OC(F)F)c3c(N)ncnc32)C1 [compound 15] |
| 5.55 | 7.92 | 7.51 | 8.15 |  |  |  | C=CC(=O)N1CCC[C@@H](n2nc(C(=O)Nc3ccc(CC(=O)N(C)C)cc3OC)c3c(N)ncnc32)C1 [compound 7] |
| 6.04 | 8.30 | 7.89 | 8.23 |  |  |  | C=CC(=O)N1CCC[C@@H](n2nc(C(=O)Nc3ccc(CC(=O)N(C)C)cc3Br)c3c(N)ncnc32)C1 [compound 17] |
| 5.47 | 7.36 |  | 7.51 |  |  |  | C=CC(=O)N1CC[C@@H](n2nc(C(=O)Nc3ccc(CC(=O)N(C)C)c(F)c3OC)c3c(N)ncnc32)C1 [compound 57] |
| 6.50 | 8.40 |  | 8.07 |  |  |  | C=CC(=O)N1CCC[C@@H](n2nc(C(=O)Nc3ccc(CC(=O)N(C)C)cc3C=C)c3c(N)ncnc32)C1 [compound 48] |
| 6.56 | 8.40 |  | 8.54 |  |  |  | C=CC(=O)N1CCC[C@@H](n2nc(C(=O)Nc3ccc(CC(=O)N(C)C)c(F)c3Cl)c3c(N)ncnc32)C1 [compound 50] |
| 5.96 |  |  | 7.89 |  |  |  | C=CC(=O)N1CC[C@@H](n2nc(C(=O)Nc3ccc(CC(=O)N(C)C)c4ccccc34)c3c(N)ncnc32)C1 [compound 61] |
| 5.28 |  |  | 7.70 |  |  |  | C=CC(=O)N1CC[C@@H](n2nc(C(=O)Nc3ccc(CC(=O)N(C)C)cc3C=C)c3c(N)ncnc32)C1 [compound 60] |
| 6.47 | 8.52 |  | 8.12 |  |  |  | C=CC(=O)N1CCC[C@@H](n2nc(C(=O)Nc3ccc(CC(=O)N(C)C)c(F)c3C)c3c(N)ncnc32)C1 [compound 12] |
|  |  |  |  | 5.68 |  | 8.10 | C=CC(=O)N1CC(F)C[C@@H](n2nc(C(=O)Nc3ccc(CC(=O)N(C)C)cc3Cl)c3c(N)ncnc32)C1 (stereo partly drawn) [compound 76, 1-((3R)-1-acryloyl-5-fluoropiperidin-3-yl)-4-amino-N-(2-chloro-4-(2-(dimethylamino)-2-oxoethyl)phenyl)-1H-pyrazolo[3,4-d]pyrimidine-3-carboxamide] |
